Experimental data published in paper PMC8467136, “Enabling Efficient Folding and High-Resolution Crystallographic Analysis of Bracelet Cyclotides” (Molecules, 2021).
Values joined by “and” are separate entries in the source; they are usually repeats but may differ in a detail not shown here. Equal values may be shown once. Bridge positions count the residues as written; N and C are the ends. Peptide text beside a SMILES is read from it.

How the values were obtained:
[1] = system: POPC/POPE (80:20) model membrane; test: Membrane binding to POPC/POPE lipid bilayers by surface plasmon resonance (SPR); details: BIAcore T200, L1 chip, POPC/POPE (80:20) bilayer, 10 mM HEPES, 150 mM NaCl; for P/L Max, peptide-to-lipid maximum binding value: pH 7.4, injection 180 s, dissociation 600 s, nonlinear regression; for Kd: pH 7.4, nonlinear regression, read-out: KD, peptide concentration required to achieve half-maximum binding at equilibrium
Text: Cyclotides are reported to exert their biological activities via membrane binding, particularly by selective binding to lipids containing phosphatidylethanolamine (PE) headgroups. Therefore, to evaluate the functional impact of the single mutation on bracelet cyclotides, the membrane-binding ability of these variants towards PE-containing lipid bilayers was examined using surface plasmon resonance (SPR). The model membrane comprising 80% 1-palmitoyloleoyl-phosphatidylcholine (POPC) and 20% 1-palmitoyloleoyl-phosphatidylethanolamine (POPE) was used. Binding affinity was evaluated by the peptide-to-lipid maximum binding value (P/L max, mol/mol) and the peptide concentration required to achieve half-maximum binding at equilibrium (KD value, μM). […] The negative effect of the [I11G] bracelet cyclotide mutation on lipid binding was expected, as the mutation reduces surface hydrophobicity, a previously reported determinant of membrane binding. The SPR dose-response curves and sensorgrams are shown in Figure S4 in Supplementary Material.
The binding affinity of bracelet cyclotides and their variants toward lipid bilayers was studied using SPR, as described previously. Two synthetic lipids, 1-palmitoyl-2-oleoyl-glycero-3-phosphocholine (POPC) and 1-palmitoyl-2-oleoyl-sn-glycero-3-phosphoethanolamine (POPE), were purchased from Avanti Polar Lipids (USA). Briefly, homogenous, small, unilamellar vesicles composed of POPC/POPE (80:20, mol/mol) were obtained by extruding the vesicle suspension through a 50-nm pore size polycarbonate membrane. L1 sensor chips and BIAcore T200 instrument were used (Cytiva, Marlborough, MA, USA). After the lipid was loaded and formed a bilayer membrane on the L1 chip, peptide solutions were injected over the lipid surface for 180 s and the dissociation was monitored for 600 s. Peptides were tested at concentrations ranging from 4–32 μM. Peptide-to-lipid molar ratio and KD values were calculated by nonlinear regression using GraphPad Prism software (version 8.3.1). Peptide solutions and lipid vesicles were prepared in HEPES buffer (10 mM HEPES, 150 mM NaCl, pH 7.4, filtered) for SPR studies.

[2] = system: HeLa cells; test: Cytotoxicity against HeLa cells, resazurin assay; type: cell-based; details: 5000 cells/well, 24-h incubation with peptide, then resazurin 18 h, triplicate, mean ± SEM
Description: To further confirm the activity of these mutants, their cytotoxicity against HeLa cancer cells was evaluated along with wild-type bracelet cyclotides. […] Of the four [I11G] mutants, the hyen D analogue had the highest activity, possibly because hyen D has one more hydrophobic residue in loop 3 compared to the other three cyclotides, which may contribute to its higher lipid-binding capacity (P/L max = 0.37) and help offset the hydrophobicity loss caused by the [I11G] mutation.
The cytotoxicity of the peptides was evaluated using the resazurin assay, as described previously. HeLa cells were seeded at 5000 cells/well in a 96-well, flat-bottomed plate one day prior to the experiments. Peptide solutions were prepared in water and incubated with HeLa cells at concentrations ranging from 16 to 0.125 μM or 8 to 0.063 μM in triplicate (final concentrations). Water and 1% Triton X-100 (TX) were applied as negative and positive control, respectively. After 24-h incubation, 10 μL of resazurin (0.05%, w/v) was added and incubated with cells for another 18 h. The absorbance was measured at 540 and 620 nm on a microplate reader (Infinite M1000 Pro microplate reader, Tecan, Switzerland). The percentage of cell death was quantified by calculating the absorbance ratio, R (R = absorbance at 620/540), and applying the following equation: % Cell death = (Rsample − RH2O)/(RTX − RH2O) × 100. Data were analyzed with GraphPad Prism software (version 8.3.1) using Specific binding with Hill slope algorithm.

## CC[C@H](C)[C@@H]1NC(=O)[C@@H]2CSSC[C@@H]3NC(=O)[C@H](C(C)C)NC(=O)[C@H](CCCCN)NC(=O)[C@H](CC(=O)O)NC(=O)[C@H]([C@@H](C)O)NC(=O)[C@@H]4CSSC[C@H](NC(=O)[C@H](CO)NC(=O)[C@H](CCC(=O)O)NC(=O)CNC(=O)[C@H](CSSC[C@H](NC(=O)CNC(=O)[C@H]([C@@H](C)CC)NC(=O)[C@H](C(C)C)NC(=O)CNC(=O)[C@H](CO)NC1=O)C(=O)N[C@@H](CO)C(=O)N4)NC(=O)[C@@H]1CCCN1C(=O)[C@H]([C@@H](C)O)NC(=O)CNC(=O)[C@H](CC(N)=O)NC(=O)[C@H](CC(C)C)NC(=O)[C@H](Cc1ccc(O)cc1)NC3=O)C(=O)N[C@@H](C(C)C)C(=O)N[C@@H](Cc1ccc(O)cc1)C(=O)N[C@@H](CC(C)C)C(=O)N1CCC[C@H]1C(=O)N2 [[I11L]kB5] (cyclo(CGESCVYLPCISGVIGCSCTDKVCYLNGTP); disulfide 1-17, 5-19, 10-24)
[1]
  P/L Max, peptide-to-lipid maximum binding value: 0.22 ± 0.00 mol/mol
  Kd: 4.95 ± 0.12 µM
[2]
  CC50 on HeLa (half maximum cytotoxic concentration): 4.31 ± 0.48 µM

## CC[C@H](C)[C@@H]1NC(=O)[C@H](C)NC(=O)[C@H](CO)NC(=O)[C@H](CO)NC(=O)[C@H]([C@@H](C)CC)NC(=O)[C@@H]2CSSC[C@@H]3NC(=O)[C@H](C(C)C)NC(=O)[C@H](CCCCN)NC(=O)[C@H](CO)NC(=O)[C@H](CCCCN)NC(=O)[C@@H]4CSSC[C@H](NC(=O)[C@H](CO)NC(=O)[C@H](CCC(=O)O)NC(=O)CNC(=O)[C@H](CSSC[C@H](NC(=O)CNC1=O)C(=O)N[C@@H](CO)C(=O)N4)NC(=O)[C@@H]1CCCN1C(=O)[C@H]([C@@H](C)CC)NC(=O)CNC(=O)[C@H](CC(N)=O)NC(=O)[C@H](CCCNC(=N)N)NC(=O)[C@H](Cc1ccc(O)cc1)NC3=O)C(=O)N[C@@H](C(C)C)C(=O)N[C@@H](Cc1c[nH]c3ccccc13)C(=O)N[C@@H]([C@@H](C)CC)C(=O)N1CCC[C@H]1C(=O)N2 [cyO2, cycloviolacin O2, reference compound] (cyclo(AIGCSCKSKVCYRNGIPCGESCVWIPCISS); disulfide 4-18, 6-22, 11-27)
[1]
  P/L Max, peptide-to-lipid maximum binding value: 0.28 ± 0.00 mol/mol
  Kd: 3.9 ± 0.11 µM
[2]
  CC50 on HeLa (half maximum cytotoxic concentration): 1.05 ± 0.06 µM

## CC[C@H](C)[C@@H]1NC(=O)CNC(=O)[C@H](CC(N)=O)NC(=O)[C@H](CCCNC(=N)N)NC(=O)[C@H](Cc2ccc(O)cc2)NC(=O)[C@@H]2CSSC[C@@H]3NC(=O)[C@@H]4CCCN4C(=O)[C@H]([C@@H](C)CC)NC(=O)[C@H](Cc4c[nH]c5ccccc45)NC(=O)[C@H](C(C)C)NC(=O)[C@@H]4CSSC[C@H](NC(=O)[C@H](CO)NC(=O)[C@H](CSSC[C@H](NC(=O)[C@@H]5CCCN5C1=O)C(=O)NCC(=O)N[C@@H](CCC(=O)O)C(=O)N[C@@H](CO)C(=O)N4)NC(=O)CNC(=O)[C@H](C(C)C)NC(=O)[C@H](C)NC(=O)[C@H](CO)NC(=O)[C@H]([C@@H](C)O)NC(=O)[C@H](CC(C)C)NC3=O)C(=O)N[C@@H](CCCCN)C(=O)N[C@@H](CO)C(=O)N[C@@H](CCCCN)C(=O)N[C@@H](C(C)C)C(=O)N2 [cyO9, cycloviolacin O9, reference compound] (cyclo(AVGCSCKSKVCYRNGIPCGESCVWIPCLTS); disulfide 4-18, 6-22, 11-27)
[1]
  P/L Max, peptide-to-lipid maximum binding value: 0.30 ± 0.01 mol/mol
  Kd: 4.83 ± 0.17 µM
[2]
  CC50 on HeLa (half maximum cytotoxic concentration): 2.35 ± 0.13 µM

## CC[C@H](C)[C@@H]1NC(=O)[C@H](C)NC(=O)[C@H](C)NC(=O)[C@H]([C@@H](C)O)NC(=O)[C@H](Cc2ccccc2)NC(=O)[C@@H]2CSSC[C@@H]3NC(=O)[C@H](C(C)C)NC(=O)[C@H](CCCCN)NC(=O)[C@H](CO)NC(=O)[C@H](CCCCN)NC(=O)[C@@H]4CSSC[C@H](NC(=O)[C@H](CO)NC(=O)[C@H](CCC(=O)O)NC(=O)CNC(=O)[C@H](CSSC[C@H](NC(=O)CNC1=O)C(=O)N[C@@H](CO)C(=O)N4)NC(=O)[C@@H]1CCCN1C(=O)[C@H](Cc1ccccc1)NC(=O)CNC(=O)[C@H](CC(N)=O)NC(=O)[C@H](CCCCN)NC(=O)[C@H](Cc1ccc(O)cc1)NC3=O)C(=O)N[C@@H](C(C)C)C(=O)N[C@@H](Cc1ccc(O)cc1)C(=O)N[C@@H]([C@@H](C)CC)C(=O)N1CCC[C@H]1C(=O)N2 [hyen D, reference compound] (cyclo(AAIGCSCKSKVCYKNGFPCGESCVYIPCFT); disulfide 5-19, 7-23, 12-28)
[1]
  P/L Max, peptide-to-lipid maximum binding value: 0.37 mol/mol and 0.37 ± 0.01 mol/mol
  Kd: 4.48 ± 0.17 µM
[2]
  CC50 on HeLa (half maximum cytotoxic concentration): 0.85 ± 0.03 µM

## CC[C@H](C)[C@@H]1NC(=O)[C@@H]2CSSC[C@@H]3NC(=O)[C@H](C(C)C)NC(=O)[C@H](CCCCN)NC(=O)[C@H](CC(=O)O)NC(=O)[C@H]([C@@H](C)O)NC(=O)[C@@H]4CSSC[C@H](NC(=O)[C@H](CO)NC(=O)[C@H](CCC(=O)O)NC(=O)CNC(=O)[C@H](CSSC[C@H](NC(=O)CNC(=O)[C@H]([C@@H](C)CC)NC(=O)[C@H](C(C)C)NC(=O)CNC(=O)[C@H](CO)NC1=O)C(=O)N[C@@H](CO)C(=O)N4)NC(=O)[C@@H]1CCCN1C(=O)[C@H]([C@@H](C)O)NC(=O)CNC(=O)[C@H](CC(N)=O)NC(=O)[C@H](CC(C)C)NC(=O)[C@H](Cc1ccc(O)cc1)NC3=O)C(=O)N[C@@H](C(C)C)C(=O)N[C@@H](Cc1ccc(O)cc1)C(=O)N[C@@H]([C@@H](C)CC)C(=O)N1CCC[C@H]1C(=O)N2 [kB5, kalata B5, reference compound] (cyclo(CGESCVYIPCISGVIGCSCTDKVCYLNGTP); disulfide 1-17, 5-19, 10-24)
[1]
  P/L Max, peptide-to-lipid maximum binding value: 0.22 ± 0.00 mol/mol
  Kd: 5.02 ± 0.17 µM
[2]
  CC50 on HeLa (half maximum cytotoxic concentration): 3.11 ± 0.20 µM
